Like-named read-outs stand apart in the source and are kept apart here.
How the values were obtained:
BRM = BRM (Homo sapiens, UniProt P51531); experiment: ATPase catalytic activity assay of BRM (ADP-Glo); format: biochemical; details: for IC50: read-out: BRM IC50 (μM)*
In short: (§1)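 In vitro biochemical ATPase assay; product ADP detected after removing leftover ATP and reconverting ADP to ATP for a luciferase signal.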

BRG-1 = BRG-1 (Homo sapiens, UniProt P51532); experiment: ATPase catalytic activity assay of BRG-1 (ADP-Glo); format: biochemical; details: ATPase catalytic activity, ADP-Glo; for IC50: read-out: BRG1 IC50 (μM)*; for Emax: read-out: BRG1 Max % Inhibition
In short: as §1

Chain of BRG-1 (P51532 whole entry): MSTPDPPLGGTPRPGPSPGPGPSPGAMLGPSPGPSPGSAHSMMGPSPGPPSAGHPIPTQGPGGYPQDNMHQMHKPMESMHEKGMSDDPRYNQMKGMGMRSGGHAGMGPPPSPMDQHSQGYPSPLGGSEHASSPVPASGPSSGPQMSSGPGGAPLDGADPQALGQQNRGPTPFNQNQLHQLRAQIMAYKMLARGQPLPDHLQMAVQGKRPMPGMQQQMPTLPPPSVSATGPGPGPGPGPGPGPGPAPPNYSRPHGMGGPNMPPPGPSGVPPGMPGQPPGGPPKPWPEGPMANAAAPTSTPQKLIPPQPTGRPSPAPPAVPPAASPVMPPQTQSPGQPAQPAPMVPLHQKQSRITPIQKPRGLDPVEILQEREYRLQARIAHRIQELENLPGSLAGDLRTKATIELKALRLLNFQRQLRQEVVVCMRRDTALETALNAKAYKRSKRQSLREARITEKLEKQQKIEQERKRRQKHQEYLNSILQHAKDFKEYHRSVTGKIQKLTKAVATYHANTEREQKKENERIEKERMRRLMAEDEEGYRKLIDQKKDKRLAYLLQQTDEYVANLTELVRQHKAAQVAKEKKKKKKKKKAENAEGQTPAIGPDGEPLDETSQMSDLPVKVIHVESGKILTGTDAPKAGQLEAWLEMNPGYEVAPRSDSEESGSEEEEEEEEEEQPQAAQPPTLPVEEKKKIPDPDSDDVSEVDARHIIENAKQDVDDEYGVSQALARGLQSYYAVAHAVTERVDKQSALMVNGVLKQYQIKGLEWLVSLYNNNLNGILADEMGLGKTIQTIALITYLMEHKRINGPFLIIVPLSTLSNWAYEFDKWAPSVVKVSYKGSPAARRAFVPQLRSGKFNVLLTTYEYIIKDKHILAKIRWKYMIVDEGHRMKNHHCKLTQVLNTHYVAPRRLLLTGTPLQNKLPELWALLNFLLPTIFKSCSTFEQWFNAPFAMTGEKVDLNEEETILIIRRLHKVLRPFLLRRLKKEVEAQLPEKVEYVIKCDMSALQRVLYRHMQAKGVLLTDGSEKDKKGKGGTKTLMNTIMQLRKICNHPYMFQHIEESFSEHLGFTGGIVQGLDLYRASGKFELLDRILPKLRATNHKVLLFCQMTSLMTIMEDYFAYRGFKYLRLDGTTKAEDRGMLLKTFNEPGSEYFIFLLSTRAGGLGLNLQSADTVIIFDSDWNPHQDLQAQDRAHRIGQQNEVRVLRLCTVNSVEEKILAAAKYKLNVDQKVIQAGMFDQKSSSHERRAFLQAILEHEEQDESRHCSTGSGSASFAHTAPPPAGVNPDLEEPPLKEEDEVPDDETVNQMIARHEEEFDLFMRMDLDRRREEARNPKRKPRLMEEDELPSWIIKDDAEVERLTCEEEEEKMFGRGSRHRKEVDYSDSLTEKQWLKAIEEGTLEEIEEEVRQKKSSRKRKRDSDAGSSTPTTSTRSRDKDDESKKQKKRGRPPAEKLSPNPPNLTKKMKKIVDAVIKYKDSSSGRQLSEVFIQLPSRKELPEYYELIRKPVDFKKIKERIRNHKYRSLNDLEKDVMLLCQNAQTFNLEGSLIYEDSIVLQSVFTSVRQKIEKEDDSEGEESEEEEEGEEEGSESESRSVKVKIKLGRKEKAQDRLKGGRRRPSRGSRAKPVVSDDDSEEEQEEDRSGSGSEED
Chain of BRM (P51531 whole entry): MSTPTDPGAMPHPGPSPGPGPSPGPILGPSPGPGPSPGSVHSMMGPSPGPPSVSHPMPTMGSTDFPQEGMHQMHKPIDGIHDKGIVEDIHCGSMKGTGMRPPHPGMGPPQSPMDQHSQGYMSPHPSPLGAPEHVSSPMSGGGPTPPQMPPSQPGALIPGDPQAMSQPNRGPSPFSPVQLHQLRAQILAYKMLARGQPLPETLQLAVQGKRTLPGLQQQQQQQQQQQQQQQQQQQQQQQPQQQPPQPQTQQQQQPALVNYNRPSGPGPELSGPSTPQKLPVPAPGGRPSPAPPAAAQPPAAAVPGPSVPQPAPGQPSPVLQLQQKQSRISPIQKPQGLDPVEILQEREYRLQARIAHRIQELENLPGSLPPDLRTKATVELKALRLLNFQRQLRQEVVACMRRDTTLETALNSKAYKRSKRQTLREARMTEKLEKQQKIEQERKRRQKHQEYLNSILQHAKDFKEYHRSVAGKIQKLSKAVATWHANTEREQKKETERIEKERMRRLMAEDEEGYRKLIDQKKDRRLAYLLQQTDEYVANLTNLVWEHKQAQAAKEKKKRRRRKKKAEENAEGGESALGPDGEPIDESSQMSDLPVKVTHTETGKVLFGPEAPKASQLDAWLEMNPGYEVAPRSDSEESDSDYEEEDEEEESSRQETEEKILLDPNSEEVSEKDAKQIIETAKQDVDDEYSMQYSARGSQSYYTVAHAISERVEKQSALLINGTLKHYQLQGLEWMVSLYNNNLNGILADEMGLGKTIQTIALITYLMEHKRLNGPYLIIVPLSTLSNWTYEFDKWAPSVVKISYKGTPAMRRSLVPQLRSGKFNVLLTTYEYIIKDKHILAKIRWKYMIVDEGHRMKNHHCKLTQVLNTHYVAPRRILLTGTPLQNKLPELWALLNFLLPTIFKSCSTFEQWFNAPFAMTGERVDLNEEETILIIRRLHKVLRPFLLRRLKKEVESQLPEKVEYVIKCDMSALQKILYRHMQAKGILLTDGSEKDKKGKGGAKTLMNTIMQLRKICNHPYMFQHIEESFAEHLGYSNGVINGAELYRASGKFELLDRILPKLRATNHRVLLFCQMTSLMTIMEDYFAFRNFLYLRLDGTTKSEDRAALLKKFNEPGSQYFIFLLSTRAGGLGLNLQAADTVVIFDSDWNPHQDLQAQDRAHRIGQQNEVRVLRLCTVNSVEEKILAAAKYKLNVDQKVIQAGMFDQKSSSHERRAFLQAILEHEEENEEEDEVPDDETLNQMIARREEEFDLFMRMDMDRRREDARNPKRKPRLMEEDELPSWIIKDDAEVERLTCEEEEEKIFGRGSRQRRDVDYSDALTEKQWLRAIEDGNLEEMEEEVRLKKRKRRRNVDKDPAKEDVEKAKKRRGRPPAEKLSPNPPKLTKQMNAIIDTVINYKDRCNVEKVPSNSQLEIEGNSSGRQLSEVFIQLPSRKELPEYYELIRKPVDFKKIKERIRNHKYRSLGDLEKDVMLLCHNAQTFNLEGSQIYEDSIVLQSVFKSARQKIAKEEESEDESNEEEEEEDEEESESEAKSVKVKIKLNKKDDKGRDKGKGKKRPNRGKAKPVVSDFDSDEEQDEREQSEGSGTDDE

SMILES	BRM Max % Inhibition (BRM; 30 nM BRM, 400 μM ATP)	IC50 (BRM; 30 nM BRM, 400 μM ATP)	IC50 (BRG-1; 30 nM BRG-1, 400 μM ATP)	Emax (BRG-1; 30 nM BRG-1, 400 μM ATP)	BRM Max % Inhibition (BRM)	IC50 (BRM)	IC50 (BRG-1)	Emax (BRG-1)	BRG1 Max % Inhibition (BRG-1)
C[C@@H]1CN(c2cccc(-c3csc(NC(=O)CNC(=O)c4cncc(C(C)(C)C)c4)n3)c2)C[C@H](C)O1 [Compound 443, 5-(tert-butyl)-N-(2-((4-(3-((cis)-2,6-dimethylmorpholino)phenyl)thiazol-2-yl)amino)-2-oxoethyl)nicotinamide]	>95%	< 0.1 µM	0.1 to 1 µM	> 95%					
C[C@@]1(F)COCc2ccc(C(=O)NCC(=O)Nc3nc(-c4ccccc4)cs3)cc21 [Compound 303, (S)-4-fluoro-4-methyl-N-(2-oxo-2-((4-phenylthiazol-2-yl)amino)ethyl)isochromane-6-carboxamide]					>95%	< 0.1 µM	0.1 to 1 µM	> 95%	
C[C@@H]1CN(c2cccc(-c3csc(NC(=O)CNC(=O)c4ccc5c(c4)[C@@](C)(O)COC5)n3)c2)C[C@H](C)O1 [Compound 437, (R)-N-(2-((4-(3-((cis)-2,6-dimethylmorpholino)phenyl)thiazol-2-yl)amino)-2-oxoethyl)-4-hydroxy-4-methylisochromane-6-carboxamide]	>95%	< 0.1 µM	0.1 to 1 µM	> 95%					
Cc1cc(C(=O)NCC(=O)Nc2nc(-c3cccc(-c4ccncc4)c3)cs2)cc(C(C)(C)C#N)c1C [Compound 75, 3-(2-cyanopropan-2-yl)-4,5-dimethyl-N-(2-oxo-2-((4-(3-(pyridin-4-yl)phenyl)thiazol-2-yl)amino)ethyl)benzamide]					>80%	0.1 to 1 µM	> 5 µM	< 30%	
Cc1ccc(C(=O)NCC(=O)Nc2nc(-c3cccc(-c4ccn(C)n4)c3)cs2)cc1C(C)(C)CN [Compound 70, 3-(1-amino-2-methylpropan-2-yl)-4-methyl-N-(2-((4-(3-(1-methyl-1H-pyrazol-3-yl)phenyl)thiazol-2-yl)amino)-2-oxoethyl)benzamide]					>95%	0.1 to 1 µM	> 5 µM	> 50%	
CC(C)(CN)c1cccc(C(=O)NCC(=O)Nc2nc(-c3cccc(-c4cc(C#N)cc(CO)c4)c3)cs2)c1 [Compound 52, 3-(1-amino-2-methylpropan-2-yl)-N-(2-((4-(3′-cyano-5′-(hydroxymethyl)-[1,1′-biphenyl]-3-yl)thiazol-2-yl)amino)-2-oxoethyl)benzamide]					>80%	0.1 to 1 µM	1 to 5 µM	> 70%	
C[C@@]1(C#N)COCc2ccc(C(=O)NCC(=O)Nc3nc(-c4ccccc4)cs3)cc21 [Compound 323, (R)-4-cyano-4-methyl-N-(2-oxo-2-((4-phenylthiazol-2-yl)amino)ethyl)isochromane-6-carboxamide]					>95%	< 0.1 µM	0.1 to 1 µM	> 95%	
CCS1(=O)=NCc2ccc(C(=O)NCC(=O)Nc3nc(-c4cccc(N5C[C@@H](C)O[C@@H](C)C5)c4)cs3)cc21 (stereo partly drawn) [Compound 367, N-(2-((4-(3-((cis)-2,6-dimethylmorpholino)phenyl)thiazol-2-yl)amino)-2-oxoethyl)-1-ethyl-3H-1I4-benzo[d]isothiazole-6-carboxamide 1-oxide]					>85%	0.1 to 1 µM	1 to 5 µM	> 85%	
Cc1ccc(C(=O)NCC(=O)Nc2nc(-c3cccc(N4C[C@@H](C)O[C@@H](C)C4)c3)cs2)cc1C(C)(C)CO [Compound 238, N-(2-((4-(3-((cis)-2,6-dimethylmorpholino)phenyl)thiazol-2-yl)amino)-2-oxoethyl)-3-(1-hydroxy-2-methylpropan-2-yl)-4-methylbenzamide]					>95%	< 0.1 µM	0.1 to 1 µM	> 90%	
C[C@@H]1CN(c2cccc(-c3csc(NC(=O)CNC(=O)c4ccc5c(c4)C4(COC5)COC4)n3)n2)C[C@H](C)O1 [Compound 300, N-(2-((4-(6-((cis)-2,6-dimethylmorpholino)pyridin-2-yl)thiazol-2-yl)amino)-2-oxoethyl)spiro[isochromane-4,3′-oxetane]-6-carboxamide]					>95%	< 0.1 µM	0.1 to 1 µM	> 95%	
CC1(C(N)=O)CCc2ccc(C(=O)NCC(=O)Nc3nc(-c4cccc(-c5ccncc5)c4)cs3)cc21 (stereo not drawn) [Compound 96]					>95%	0.1 to 1 µM	1 to 5 µM	> 90%	
CC(C)S(=O)(=O)c1cccc(C(=O)NCC(=O)Nc2nc(-c3cccc(-c4cccc(C#N)n4)n3)cs2)c1 [Compound 118, N-[2-[[4-[6-(6-cyano-2-pyridyl)-2-pyridyl]thiazol-2-yl]amino]-2-oxo-ethyl]-3-isopropylsulfonyl-benzamide]					>70%	0.1 to 1 µM	> 5 µM	< 30%	
COc1cccc(-c2csc(NC(=O)CNC(=O)c3cc(F)c4c(c3)C(C)(O)COC4)n2)c1 (stereo in doubt) [Compound 280, (R)-8-fluoro-4-hydroxy-N-(2-((4-(3-methoxyphenyl)thiazol-2-yl)amino)-2-oxoethyl)-4-methylisochromane-6-carboxamide]					>90%	0.1 to 1 µM	1 to 5 µM	> 90%	
C[C@@H]1CN(c2cc(F)cc(-c3csc(NC(=O)CNC(=O)c4ccc(F)c(C(C)(C)CO)c4)n3)c2)C[C@H](C)O1 [Compound 198, N-(2-((4-(3-((cis)-2,6-dimethylmorpholino)-5-fluorophenyl)thiazol-2-yl)amino)-2-oxoethyl)-4-fluoro-3-(1-hydroxy-2-methylpropan-2-yl)benzamide]					>95%	< 0.1 µM	0.1 to 1 µM	> 95%	
CNc1cc(-c2cccc(-c3csc(NC(=O)CNC(=O)c4cccc(C(C)(C)CN)c4)n3)c2)ccn1 [Compound 57, 3-(1-amino-2-methylpropan-2-yl)-N-(2-((4-(3-(2-(methylamino)pyridin-4-yl)phenyl)thiazol-2-yl)amino)-2-oxoethyl)benzamide]					>95%	< 0.1 µM	0.1 to 1 µM	> 80%	
Cc1nccc(-c2cccc(-c3csc(NC(=O)CNC(=O)c4cccc(C(C)(C)CN)c4)n3)c2)n1 [Compound 100]					>95%	< 0.1 µM	< 0.1 µM		>95%
C[C@@H]1CN(c2cccc(-c3csc(NC(=O)CNC(=O)c4ccc5c(c4)[C@H]([C@H](C)O)CC5)n3)n2)C[C@H](C)O1 [Compound 141, (3R)-N-[2-[[4-[6-[(cis)-2,6-dimethylmorpholin-4-yl]-2-pyridyl]thiazol-2-yl]amino]-2-oxo-ethyl]-3-[(1S)-1-hydroxyethyl]indane-5-carboxamide]					>80%	0.1 to 1 µM	> 5 µM	> 60%	
C[C@@]1(C#N)COCc2ccc(C(=O)NCC(=O)Nc3nc(-c4cc(F)cc(C5CCO5)c4)cs3)cc21 (stereo partly drawn) [Compound 316, (R)-4-cyano-N-(2-((4-(3-fluoro-5-(oxetan-2-yl)phenyl)thiazol-2-yl)amino)-2-oxoethyl)-4-methylisochromane-6-carboxamide]					>95%	< 0.1 µM	< 0.1 µM	> 95%	
CC1(C#N)CCOc2ccc(C(=O)NCC(=O)Nc3nc(-c4cccc(-c5ccncc5)c4)cs3)cc21 (stereo in doubt) [Compound 440, (S)-4-cyano-4-methyl-N-(2-oxo-2-((4-(3-(pyridin-4-yl)phenyl)thiazol-2-yl)amino)ethyl)chromane-6-carboxamide]	>95%	< 0.1 µM	< 0.1 µM	> 95%					
C[C@@H]1CN(c2cccc(-c3csc(NC(=O)CNC(=O)c4cccc([C@]5(C(F)F)CCOC5)c4)n3)c2)C[C@H](C)O1 [Compound 285]					>95%	< 0.1 µM	0.1 to 1 µM	> 95%	
CC1(F)COCc2ccc(C(=O)NCC(=O)Nc3nc(-c4cccc(N5CCC5)c4)cs3)cc21 (stereo not drawn) [Compound 356, N-(2-((4-(3-(azetidin-1-yl)phenyl)thiazol-2-yl)amino)-2-oxoethyl)-4-fluoro-4-methylisochromane-6-carboxamide]					>95%	< 0.1 µM	0.1 to 1 µM	> 95%	
C[C@@]1(C#N)COCc2ccc(C(=O)NCC(=O)Nc3nc(-c4cc(F)c5c(c4)OCO5)cs3)cc21 [Compound 339, (R)-4-cyano-N-(2-((4-(7-fluorobenzo[d][1,3]dioxol-5-yl)thiazol-2-yl)amino)-2-oxoethyl)-4-methylisochromane-6-carboxamide]					>95%	< 0.1 µM	< 0.1 µM	> 95%	
C[C@@H]1CN(c2cccc(-c3csc(NC(=O)CNC(=O)c4ccnc(C(C)(C)CO)c4)n3)c2)C[C@H](C)O1 [Compound 139, N-[2-[[4-[3-[(cis)-2,6-dimethylmorpholin-4-yl]phenyl]thiazol-2-yl]amino]-2-oxo-ethyl]-2-(2-hydroxy-1,1-dimethyl-ethyl)pyridine-4-carboxamide]					>95%	0.1 to 1 µM	1 to 5 µM	> 70%	
COc1cccc(-c2csc(NC(=O)CNC(=O)c3ccc4c(c3)C(C)(C#N)CNC4)n2)c1 (stereo not drawn) [Compound 311, 4-cyano-N-(2-((4-(3-methoxyphenyl)thiazol-2-yl)amino)-2-oxoethyl)-4-methyl-1,2,3,4-tetrahydroisoquinoline-6-carboxamide]					>95%	0.1 to 1 µM	1 to 5 µM	> 95%	
